According to patent US20230064189A1, “1H-PYRAZOLO[3,4-D]PYRIMIDINE COMPOUNDS USEFUL FOR THE TREATMENT OF PLATINUM-RESISTANT CANCER” (IMPERIAL COLLEGE INNOVATIONS LIMITED, priority 2019, published 2023):
“And” between values parts separate entries of the source, which are not always exact repeats. Identical values can stand only once.

Legend:
AKT1 = AKT1 (Homo sapiens, UniProt P31749); assay: AKT1 enzymatic inhibition assay (HTRF KinEASE); format: biochemical; settings: read-out: AKT1 pIC50 (converted)
Experimental: (§1) The IC50 values of Example compounds of the invention for AKT1, AKT2 and AKT3 were measured using HTRF (Homogeneous Time Resolved Fluorescence) KinEASE assays (62ST3PEB—1000 tests or 62ST3PEC—20,000 tests) from cisbio.com, according to manufacturer's instructions.

AKT2 = AKT2 (Homo sapiens, UniProt P31751); assay: AKT2 enzymatic inhibition assay (HTRF KinEASE); format: biochemical; settings: read-out: AKT2 pIC50 (converted)
Experimental: as §1

AKT3 = AKT3 (Homo sapiens, UniProt Q9Y243); assay: AKT3 enzymatic inhibition assay (HTRF KinEASE); format: biochemical; settings: read-out: AKT3 pIC50 (converted)
Experimental: as §1

DNA-PK = DNA-PK (Homo sapiens, UniProt P78527); assay: DNA-PK enzymatic inhibition assay (HTRF KinEASE); format: biochemical; settings: read-out: DNA-PK pIC50 (converted)
Experimental: The IC50 values of Example compounds of the invention for DNA-PK were measured using the HTRF KinEASE assay as described above.

PEO4 cells = assay: Relative re-sensitisation ratio of apoptosis induction (caspase 3/7 normalised to MTT) with cisplatin; format: cell-based; settings: compound at 20 μM, triciribine at 25 μM, cisplatin 25 μM, 24 h
Experimental: Cell viability was determined for different assays (as described in FIGS. 1 and 2, Table 5) in optically clear 96 well plates using the standard 3-(4, 5-dimethylthiazol-2-yl)-2, 5-diphenyl tetrazolium bromide (MTT) assay, which is a colorimetric method for determining the number of metabolically active cells in cytotoxicity assays. MTT is bioreduced by mitochondrial dehydrogenase enzymes into a coloured solid formazan product. MTT reagent (Sigma, UK) was initially prepared by dissolving in PBS at a concentration of 3 mg/ml. Following relevant drug treatments at different time points and cell lines (described in results section and FIGS. 1 and 2), MTT reagent was added to each experimental well at a final concentration of 0.5 mg/ml. After incubation for 3 h at 37° C. 5% CO2, an equal volume of stop solution (10% SDS in 0.01% HCl) was added and formed formazan crystals were allowed to dissolve shaking overnight. The following day, the optical density was read at 570 nm and analysis performed as per each assay type.
The caspase 3/7 activity of cells following treatment with inhibitor compounds or vehicle (DMSO) was determined using the Caspase-Glo® 3/7 Assay (Catalogue number G8093, Promega, US) according to manufacturer's instructions. Briefly, 10,000 cells per well for PEO1 and PEO4 cell lines or 5000 cells per well for SKOV3 cell line were grown in 96 well plates in a final volume of 50 μl and following relevant drug treatment of cells (example compound±cisplatin, comparative example compound±cisplatin, or vehicle±cisplatin) for 24 hours, an equal volume of Caspase-Glo® Reagent containing a luminogenic substrate for Caspase 3 and Caspase 7 was added i.e. if cells cultured in 50 μl of media, 50 μl of caspase reagent was added. After 1 h incubation at room temperature in the dark, the luminescence of each sample was measured in a plate-reading luminometer (LUMIstar OPTIMA, BMG Labtech, Germany). Caspase 3/7 activity data was normalised to corresponding viability data from MTT and analysis was performed according to each experimental set-up.
. Apoptosis (caspase 3/7) and viability (MTT) assays were carried out as described for each assay protocols and the phenotypic apoptosis assays above. Relative apoptosis induction was inferred from caspase 3/7 assay values normalised to the standard MTT viability assay values of each corresponding well. […]

Sequence of AKT3 (Q9Y243 148-405 limits assumed): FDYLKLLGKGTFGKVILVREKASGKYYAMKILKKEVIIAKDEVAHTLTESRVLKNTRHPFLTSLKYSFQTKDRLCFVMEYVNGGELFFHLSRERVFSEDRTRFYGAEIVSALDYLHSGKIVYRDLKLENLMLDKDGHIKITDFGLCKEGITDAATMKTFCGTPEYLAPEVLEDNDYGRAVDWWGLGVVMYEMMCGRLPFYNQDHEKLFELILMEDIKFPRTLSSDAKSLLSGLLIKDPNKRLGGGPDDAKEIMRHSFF
Sequence of AKT2 (P31751 152-409 limits assumed): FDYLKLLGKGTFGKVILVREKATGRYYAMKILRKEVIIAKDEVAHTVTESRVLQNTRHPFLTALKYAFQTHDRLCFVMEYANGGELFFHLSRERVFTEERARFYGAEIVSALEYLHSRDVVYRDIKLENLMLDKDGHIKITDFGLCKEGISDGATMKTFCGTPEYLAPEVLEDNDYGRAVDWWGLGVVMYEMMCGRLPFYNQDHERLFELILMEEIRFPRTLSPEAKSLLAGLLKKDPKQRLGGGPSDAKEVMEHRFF
Sequence of AKT1 (P31749 150-408 limits assumed): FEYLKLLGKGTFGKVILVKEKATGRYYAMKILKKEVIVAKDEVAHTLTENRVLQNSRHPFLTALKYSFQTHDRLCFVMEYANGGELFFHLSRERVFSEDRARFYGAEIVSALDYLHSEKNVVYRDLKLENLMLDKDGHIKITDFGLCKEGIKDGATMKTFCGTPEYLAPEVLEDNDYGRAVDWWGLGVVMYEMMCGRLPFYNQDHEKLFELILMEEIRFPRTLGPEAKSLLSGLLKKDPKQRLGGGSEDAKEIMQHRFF

CN(C)CCNC(c1ccc(Cl)cc1)C1CCN(c2ncnc3[nH]nc(Br)c23)CC1 (stereo not shown) [Example 9, N^1-((1-(3-bromo-1H-pyrazolo[3,4-d]pyrimidin-4-yl)piperidin-4-yl)(4-chlorophenyl)methyl)-N^2,N^2-dimethylethane-1,2-diamine]
IC50 (AKT1): 1.2 nM
IC50 (AKT2): 2.75 nM
IC50 (AKT3): 0.676 nM
IC50 (DNA-PK): 1.95 nM
Relative re-sensitisation ratio of apoptosis induction (caspase 3/7) relative to triciribine phosphate (PEO4 cells): 1.5

CN(C)CC(c1ccc(Cl)cc1)N1CCN(c2ncnc3[nH]nc(C(F)(F)F)c23)CC1 (stereo not shown) [Example 13, 2-(4-chlorophenyl)-N,N-dimethyl-2-(4-(3-(trifluoromethyl)-1H-pyrazolo[3,4-d]pyrimidin-4-yl)piperazin-1-yl)ethanamine]
IC50 (AKT1): 7.08 nM
IC50 (AKT2): 7.24 nM
IC50 (AKT3): 2.95 nM
IC50 (DNA-PK): 1.86 nM
Relative re-sensitisation ratio of apoptosis induction (caspase 3/7) relative to triciribine phosphate (PEO4 cells): 1.2

CN(C)CCNC(=O)C(c1ccc(Cl)cc1)N1CCN(c2ncnc3[nH]nc(Br)c23)CC1 (single isomer, unassigned; (-)) [Example 3a, (−)-2-(4-(3-bromo-1H-pyrazolo[3,4-d]pyrimidin-4-yl)piperazin-1-yl)-2-(4-chlorophenyl)-N-(2-(dimethylamino)ethyl)acetamide]
IC50 (AKT1): 4.47 nM and 1.58 nM
IC50 (DNA-PK): 4.9 nM and 10.7 nM
Relative re-sensitisation ratio of apoptosis induction (caspase 3/7) relative to triciribine phosphate (PEO4 cells): 2.7

CN(C)CC(c1ccc(Cl)cc1)C1CCN(c2ncnc3[nH]nc(Br)c23)CC1 (stereo not shown) [Example 7, 2-(1-(3-bromo-1H-pyrazolo[3,4-d]pyrimidin-4-yl)piperidin-4-yl)-2-(4-chlorophenyl)-N,N-dimethylethan-1-amine]
IC50 (AKT1): 0.912 nM
IC50 (AKT2): 3.63 nM
IC50 (AKT3): 1.38 nM
IC50 (DNA-PK): 2.75 nM
Relative re-sensitisation ratio of apoptosis induction (caspase 3/7) relative to triciribine phosphate (PEO4 cells): 2.3

CN(C)CCCCC(O)(c1ccc(Cl)cc1)C1CCN(c2ncnc3[nH]nc(Br)c23)CC1 (stereo not shown) [Example 14, 1-(1-(3-bromo-1H-pyrazolo[3,4-d]pyrimidin-4-yl)piperidin-4-yl)-1-(4-chlorophenyl)-5-(dimethylamino)pentan-1-ol]
IC50 (AKT1): 2.51 nM
IC50 (AKT2): 6.46 nM
IC50 (AKT3): 1.29 nM
IC50 (DNA-PK): 4.68 nM
Relative re-sensitisation ratio of apoptosis induction (caspase 3/7) relative to triciribine phosphate (PEO4 cells): 1.2

Cc1n[nH]c2ncnc(N3CCC(C(OCCN(C)C)c4ccc(Cl)cc4)CC3)c12 (stereo not shown) [Example 5, 2-((4-chlorophenyl)(1-(3-methyl-1H-pyrazolo[3,4-d]pyrimidin-4-yl)piperidin-4-yl)methoxy)-N,N-dimethylethan-1-amine]
IC50 (AKT1): 12.6 nM
IC50 (AKT2): 27.5 nM
IC50 (AKT3): 7.24 nM
IC50 (DNA-PK): 7.08 nM
Relative re-sensitisation ratio of apoptosis induction (caspase 3/7) relative to triciribine phosphate (PEO4 cells): 2.5

CN(C)CCNC(=O)C(c1ccc(Cl)cc1)N1CCN(c2ncnc3[nH]nc(Br)c23)CC1 (stereo not shown) [Example 3, 2-(4-(3-bromo-1H-pyrazolo[3,4-d]pyrimidin-4-yl)piperazin-1-yl)-2-(4-chlorophenyl)-N-(2-(dimethylamino)ethyl)acetamide]
Relative re-sensitisation ratio of apoptosis induction (caspase 3/7) relative to triciribine phosphate (PEO4 cells): 1.7

CN(C)CCCOC(c1ccc(Cl)cc1)C1CCN(c2ncnc3[nH]nc(Br)c23)CC1 (stereo not shown) [Example 10, 3-((1-(3-bromo-1H-pyrazolo[3,4-d]pyrimidin-4-yl)piperidin-4-yl)(4-chlorophenyl)methoxy)-N,N-dimethylpropan-1-amine]
Relative re-sensitisation ratio of apoptosis induction (caspase 3/7) relative to triciribine phosphate (PEO4 cells): 1.5

COc1ccc(O)c(C(=O)c2ccc(C(=O)N[C@@H]3CCCNC[C@H]3NC(=O)c3ccncc3)cc2)c1F [Roche comp-4, N-{(3R,4R)-4-[4-(2-fluoro-6-hydroxy-3-methoxy-benzoyl)-benzoylamino]-azepan-3-yl}-isonicotinamide, reference compound]
IC50 (AKT2): 170 nM
IC50 (AKT3): 209 nM
IC50 (DNA-PK): 8.51 nM

CCN(CC)CCS(=O)(=O)N(c1ccc(Cl)cc1)C1CCN(c2ncnc3[nH]nc(Br)c23)CC1 [Example 6, N-(1-(3-bromo-1H-pyrazolo[3,4-d]pyrimidin-4-yl)piperidin-4-yl)-N-(4-chlorophenyl)-2-(diethylamino)ethane-1-sulfonamide]
IC50 (AKT1): 1.32 nM
IC50 (AKT2): 7.41 nM
IC50 (AKT3): 0.851 nM
IC50 (DNA-PK): 6.17 nM
Relative re-sensitisation ratio of apoptosis induction (caspase 3/7) relative to triciribine phosphate (PEO4 cells): 2.3

CN(C)CCCC(=C1CCN(c2ncnc3[nH]nc(C(F)(F)F)c23)CC1)c1ccc(Cl)cc1 [Example 15, 4-(4-chlorophenyl)-N,N-dimethyl-4-(1-(3-(trifluoromethyl)-1H-pyrazolo[3,4-d]pyrimidin-4-yl)piperidin-4-ylidene)butan-1-amine]
IC50 (AKT1): 933 nM
IC50 (AKT2): 490 nM
IC50 (AKT3): 158 nM
IC50 (DNA-PK): 12 nM
Relative re-sensitisation ratio of apoptosis induction (caspase 3/7) relative to triciribine phosphate (PEO4 cells): 1.1

CN(C)C(=O)C(c1ccc(Cl)cc1)N1CCN(c2ncnc3[nH]nc(Br)c23)CC1 (stereo not shown) [Example 4, 2-(4-(3-bromo-1H-pyrazolo[3,4-d]pyrimidin-4-yl)piperazin-1-yl)-2-(4-chlorophenyl)-N,N-dimethylacetamide]
IC50 (AKT1): 1350 nM
IC50 (AKT2): 2240 nM
IC50 (AKT3): 603 nM
IC50 (DNA-PK): 141 nM
Relative re-sensitisation ratio of apoptosis induction (caspase 3/7) relative to triciribine phosphate (PEO4 cells): 2.6

CN(C)CCCC(O)(c1ccc(Cl)cc1)C1CCN(c2ncnc3[nH]nc(Br)c23)CC1 (stereo not shown) [Example 8, 1-(1-(3-bromo-1H-pyrazolo[3,4-d]pyrimidin-4-yl)piperidin-4-yl)-1-(4-chlorophenyl)-4-(dimethylamino)butan-1-ol]
IC50 (AKT1): 2.57 nM
IC50 (AKT2): 6.03 nM
IC50 (AKT3): 0.955 nM
IC50 (DNA-PK): 3.47 nM
Relative re-sensitisation ratio of apoptosis induction (caspase 3/7) relative to triciribine phosphate (PEO4 cells): 1.73

CN(C)CCNC(=O)C(c1ccc(Cl)cc1)N1CCN(c2ncnc3[nH]nc(Br)c23)CC1 (single isomer, unassigned; (+)) [Example 3b, (+)-2-(4-(3-bromo-1H-pyrazolo[3,4-d]pyrimidin-4-yl)piperazin-1-yl)-2-(4-chlorophenyl)-N-(2-(dimethylamino)ethyl)acetamide]
IC50 (AKT1): 15.1 nM
IC50 (AKT2): 34.7 nM
IC50 (AKT3): 5.25 nM
IC50 (DNA-PK): 10.5 nM
Relative re-sensitisation ratio of apoptosis induction (caspase 3/7) relative to triciribine phosphate (PEO4 cells): 1.4

CN1N=C(N)c2cn([C@@H]3O[C@H](COP(=O)(O)O)[C@@H](O)[C@H]3O)c3ncnc1c23 [Triciribine phosphate, ((2R,3S,4R,5R)-5-(3-amino-5-methyl-1,4,5,6,8-pentaazaacenaphthylen-1(5H)-yl)-3,4-dihydroxytetrahydrofuran-2-yl)methyl dihydrogen phosphate, reference compound]
Relative re-sensitisation ratio of apoptosis induction (caspase 3/7) relative to triciribine phosphate (PEO4 cells): 1.0

CN(C)CC(c1ccc(Cl)cc1)C1CCN(c2ncnc3[nH]nc(C(F)(F)F)c23)CC1 (stereo not shown) [Example 11, 2-(4-chlorophenyl)-N,N-dimethyl-2-(1-(3-(trifluoromethyl)-1H-pyrazolo[3,4-d]pyrimidin-4-yl)piperidin-4-yl)ethan-1-amine]
IC50 (AKT1): 0.912 nM
IC50 (AKT2): 1.66 nM
IC50 (AKT3): 0.316 nM
IC50 (DNA-PK): 1.7 nM
Relative re-sensitisation ratio of apoptosis induction (caspase 3/7) relative to triciribine phosphate (PEO4 cells): 1.3
